# Measurements taken from article PMC8881610 (Nature Communications, 2022).
# Where two headings read alike, the source gives them in different places. Where a SMILES comes first, the peptide text is derived from it. [ ]: non-standard residue; d: D form. Aib = CC(C)(N)C(=O)O
# Assays:
# GCGR = GCGR (Homo sapiens, UniProt P47871); test: cAMP accumulation assay, GCGR WT, mutant or modified constructs; format: cell-based; set-up: V5 (C); 6×His (C); expressed in transfected cells; host or cells: HEK293T; conditions: for EC50 / Emax: HEK293T; for Emax: HEK-293T
# GCGR, sequence (P47871 26-477): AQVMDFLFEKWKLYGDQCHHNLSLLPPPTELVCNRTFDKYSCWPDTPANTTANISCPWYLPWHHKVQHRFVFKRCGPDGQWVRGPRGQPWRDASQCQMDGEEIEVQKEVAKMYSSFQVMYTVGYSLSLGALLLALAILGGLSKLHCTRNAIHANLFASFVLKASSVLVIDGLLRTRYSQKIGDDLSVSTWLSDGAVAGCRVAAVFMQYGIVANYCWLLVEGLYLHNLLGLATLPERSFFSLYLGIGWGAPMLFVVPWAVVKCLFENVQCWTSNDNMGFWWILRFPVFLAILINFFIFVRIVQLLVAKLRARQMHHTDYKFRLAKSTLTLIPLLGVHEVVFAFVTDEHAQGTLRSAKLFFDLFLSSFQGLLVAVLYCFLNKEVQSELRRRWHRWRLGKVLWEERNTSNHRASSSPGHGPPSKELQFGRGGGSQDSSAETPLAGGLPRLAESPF
# Method: Human embryonic kidney 293 cells containing SV40 large T-antigen (HEK293T) were cultured in DMEM (Gibco) supplemented with 10% (v/v) fetal bovine serum (FBS, Gibco), 1 mM sodium pyruvate (Gibco) and 100 units/mL penicillin and 100 μg/mL streptomycin at 37 °C in 5% CO2. Chinese hamster ovary (CHO-K1) cells were cultured in F-12 (Gibco) containing 10% FBS, 100 units/mL penicillin and 100 μg/mL streptomycin at 37 °C in 5% CO2. For cAMP and receptor expression assays, HEK293T cells were seeded into 6-well cell culture plates at a density of 7 × 10^5 cells per well. After overnight incubation, cells were transfected with GIPR, GLP-1R or GCGR construct using Lipofectamine 2000 or Lipofectamine 3000 transfection reagent (Invitrogen). For whole-cell binding assay, CHO-K1 cells were seeded into 96-well fibronectin-treated cell culture plates at a density of 3 × 10^4 cells per well. After overnight incubation, cells were transfected with GIPR, GLP-1R or GCGR construct using Lipofectamine 2000 transfection reagent (Invitrogen). Following 24 h culturing, the transfected cells were ready for use. […]
# For GIPR, GLP-1R and GCGR, multi-targeting agonist stimulated cAMP accumulation was measured by a LANCE Ultra cAMP kit (PerkinElmer). After 24 h culture, the transfected cells were seeded into 384-well microtiter plates at a density of 3,000 cells per well in HBSS supplemented with 5 mM HEPES, 0.1% (w/v) BSA or 0.1% (w/v) casein and 0.5 mM 3-isobutyl-1-methylxanthine. The cells were stimulated with different concentrations of peptide agonists for 40 min at RT. Eu-cAMP tracer and ULight^TM-anti-cAMP were then diluted by cAMP detection buffer and added to the plates separately to terminate the reaction. Plates were incubated at RT for 1 h and the fluorescence intensity measured at 620 nm and […] by an EnVision multilabel plate reader (PerkinElmer).
# GLP-1R [1] = target: GLP-1R (Homo sapiens, UniProt P43220, W214A); test: cAMP accumulation assay, GLP-1R WT, mutant or modified constructs; format: cell-based; set-up: Flag; expressed in transfected cells; host or cells: HEK293T; conditions: GLP-1R W214A, HEK293T; for Emax: HEK-293T
# GLP-1R (Homo sapiens, UniProt P43220, W214A), sequence (P43220 24-463 W214A): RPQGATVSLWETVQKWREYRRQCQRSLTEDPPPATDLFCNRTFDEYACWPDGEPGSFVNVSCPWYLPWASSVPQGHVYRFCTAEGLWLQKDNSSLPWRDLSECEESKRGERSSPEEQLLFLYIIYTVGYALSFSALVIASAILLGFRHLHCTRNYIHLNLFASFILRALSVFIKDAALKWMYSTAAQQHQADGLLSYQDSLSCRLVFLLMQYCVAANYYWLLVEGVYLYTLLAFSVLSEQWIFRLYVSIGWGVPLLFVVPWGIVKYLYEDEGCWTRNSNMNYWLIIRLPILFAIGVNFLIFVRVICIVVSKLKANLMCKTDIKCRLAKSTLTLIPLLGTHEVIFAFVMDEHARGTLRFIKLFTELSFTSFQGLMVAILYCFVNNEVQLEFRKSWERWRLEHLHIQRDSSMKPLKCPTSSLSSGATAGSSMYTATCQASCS
# Summary of the method: (§1)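 HEK293T cells transiently expressing wild-type, mutant or modified human GLP-1R (HA signal peptide constructs) were used. Cells were stimulated with peptide agonists for 40 min at room temperature in HBSS with 0.5 mM IBMX and 0.1% BSA or casein. cAMP was quantified by LANCE Ultra TR-FRET (620/650 nm).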
# GLP-1R [2] = target: GLP-1R (Homo sapiens, UniProt P43220, Y148A); test: as above; format: cell-based; set-up: Flag; expressed in transfected cells; host or cells: HEK293T; conditions: GLP-1R Y148A, HEK293T; for Emax: HEK-293T
# GLP-1R (Homo sapiens, UniProt P43220, Y148A), sequence (P43220 24-463 Y148A): as the sequence (P43220 24-463 W214A) above, with Y125A, A191W counted along it
# Summary of the method: as §1
# GIPR = target: T1, GIPR (Homo sapiens, UniProt P48546, E135A); test: Whole-cell binding assay, competition with 125I-GIP1-42; set-up: acylated tirzepatide to the full-length or modified; Flag; expressed in transfected cells; conditions: GIPR E135A, CHO-K1
# T1 sequence (P48546 22-466 E135A): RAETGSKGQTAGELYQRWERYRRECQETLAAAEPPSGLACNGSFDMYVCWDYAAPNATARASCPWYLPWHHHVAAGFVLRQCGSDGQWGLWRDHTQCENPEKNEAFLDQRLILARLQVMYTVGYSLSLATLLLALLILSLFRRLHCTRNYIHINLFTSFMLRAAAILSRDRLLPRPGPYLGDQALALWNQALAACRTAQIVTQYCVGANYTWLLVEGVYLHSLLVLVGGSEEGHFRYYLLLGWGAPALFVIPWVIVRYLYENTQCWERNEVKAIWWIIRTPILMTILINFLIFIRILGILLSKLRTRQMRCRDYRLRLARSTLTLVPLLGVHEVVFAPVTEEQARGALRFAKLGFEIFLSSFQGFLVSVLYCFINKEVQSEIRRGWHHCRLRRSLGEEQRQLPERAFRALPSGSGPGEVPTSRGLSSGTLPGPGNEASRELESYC
# Summary of the method: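 Transiently transfected CHO-K1 cells expressing WT or mutant GIPR were washed in F-12 with 0.1% BSA or 0.1% casein and 33 mM HEPES, then incubated 2 h at 37 °C. After ice-cold PBS washes, cells were lysed and bound radioactivity counted (CPM).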
# [3] = GCGR WT, 0.1% BSA, read-out: cAMP accumulation Emax
# [4] = GCGR WT, 0.1% casein, read-out: cAMP accumulation Emax
# [5] = read-out: cAMP pEC50 (converted)
compound,measurement,setting,value
CC(C)C[C@H](NC(=O)[C@H](CC(C)C)NC(=O)[C@H](Cc1c[nH]c2ccccc12)NC(=O)[C@H](CCC(N)=O)NC(=O)[C@@H](NC(=O)[C@H](Cc1ccccc1)NC(=O)[C@H](CC(=O)O)NC(=O)[C@H](CCC(N)=O)NC(=O)[C@H](C)NC(=O)[C@H](C)NC(=O)[C@H](CCCNC(=N)N)NC(=O)[C@H](CCC(=O)O)NC(=O)[C@H](CC(=O)O)NC(=O)[C@H](CC(C)C)NC(=O)[C@H](Cc1ccc(O)cc1)NC(=O)[C@H](CCCCN)NC(=O)[C@H](CO)NC(=O)[C@H](CCCCN)NC(=O)[C@H](CC(=O)O)NC(=O)[C@H](CO)NC(=O)[C@@H](NC(=O)[C@H](Cc1ccccc1)NC(=O)[C@@H](NC(=O)CNC(=O)[C@H](CCC(N)=O)NC(=O)C(C)(C)NC(=O)[C@@H](N)Cc1c[nH]cn1)[C@@H](C)O)[C@@H](C)O)C(C)C)C(=O)N[C@@H](CC(=O)O)C(=O)NCC(=O)NCC(=O)N1CCC[C@H]1C(=O)N[C@@H](CO)C(=O)N[C@@H](CO)C(=O)NCC(=O)N[C@@H](C)C(=O)N1CCC[C@H]1C(=O)N1CCC[C@H]1C(=O)N1CCC[C@H]1C(=O)N[C@@H](CO)C(N)=O [Non-lipidated peptide 20] (H-H[Aib]QGTFTSDKSKYLDERAAQDFVQWLLDGGPSSGAPPPS-NH2; N-terminus and C-terminus assumed),EC50,"GCGR; GCGR WT, 0.1% BSA, read-out: cAMP accumulation pEC50 (converted)",1950 pM
same,reduction of cAMP accumulation vs peptide 20,"GCGR; GCGR, 0.1% BSA",759 fold
same,EC50 for cAMP accumulation relative to peptide 20,"GCGR; GCGR, 0.1% casein","−1,514 fold"
same,Emax,GCGR; [3],105 ± 2.16%
same,Emax,GCGR; [4],103 ± 1.98%
CCCCCCCCCCCCCCCC(=O)N[C@@H](CCC(=O)NCCCC[C@H](NC(=O)[C@H](CC(=O)O)NC(=O)[C@H](CO)NC(=O)[C@@H](NC(=O)[C@H](Cc1ccccc1)NC(=O)[C@@H](NC(=O)CNC(=O)[C@H](CCC(N)=O)NC(=O)C(C)(C)NC(=O)[C@@H](N)Cc1c[nH]cn1)[C@@H](C)O)[C@@H](C)O)C(=O)N[C@@H](CO)C(=O)N[C@@H](CCCCN)C(=O)N[C@@H](Cc1ccc(O)cc1)C(=O)N[C@@H](CC(C)C)C(=O)N[C@@H](CC(=O)O)C(=O)N[C@@H](CCC(=O)O)C(=O)N[C@@H](CCCNC(=N)N)C(=O)N[C@@H](C)C(=O)N[C@@H](C)C(=O)N[C@@H](CCC(N)=O)C(=O)N[C@@H](CC(=O)O)C(=O)N[C@@H](Cc1ccccc1)C(=O)N[C@H](C(=O)N[C@@H](CCC(N)=O)C(=O)N[C@@H](Cc1c[nH]c2ccccc12)C(=O)N[C@@H](CC(C)C)C(=O)N[C@@H](CC(C)C)C(=O)N[C@@H](CC(=O)O)C(=O)NCC(=O)NCC(=O)N1CCC[C@H]1C(=O)N[C@@H](CO)C(=O)N[C@@H](CO)C(=O)NCC(=O)N[C@@H](C)C(=O)N1CCC[C@H]1C(=O)N1CCC[C@H]1C(=O)N1CCC[C@H]1C(=O)N[C@@H](CO)C(N)=O)C(C)C)C(=O)O [Peptide 20],EC50,GLP-1R [1]; [5],9.77 pM
same,Emax,GLP-1R [1],100.4 ± 0.94%
same,EC50,GLP-1R [2]; [5],5.01 pM
same,Emax,GLP-1R [2],101 ± 1.26%
same,EC50,"GCGR; GCGR WT, read-out: cAMP pEC50 (converted)",5.62 pM
same,EC50,"GCGR; GCGR, n = 4, SEM, read-out: cAMP pEC50 ± S.E.M. (converted)",2.63 pM
same,Emax,GCGR; [3],101 ± 1.36%
same,Emax,GCGR; [4],100.2 ± 0.86%
same,Emax,"GCGR; GCGR WT, read-out: cAMP Emax",99.3 ± 1.73%
same,Emax,"GCGR; GCGR, n = 4, SEM, read-out: cAMP Emax ± S.E.M.",101 ± 1.68%
same,binding Span,GIPR,64.00 ± 2.46 % WT
same,IC50,GIPR; read-out: binding pIC50 (converted),5620 pM
CC[C@H](C)[C@H](NC(=O)[C@H](CC(C)C)NC(=O)[C@H](Cc1c[nH]c2ccccc12)NC(=O)[C@H](CCC(N)=O)NC(=O)[C@@H](NC(=O)[C@H](Cc1ccccc1)NC(=O)[C@H](C)NC(=O)[C@H](CCCCNC(=O)COCCOCCNC(=O)COCCOCCNC(=O)CC[C@H](NC(=O)CCCCCCCCCCCCCCCCCCC(=O)O)C(=O)O)NC(=O)[C@H](CCC(N)=O)NC(=O)[C@H](C)NC(=O)[C@@H](NC(=O)[C@H](CCCCN)NC(=O)[C@H](CC(=O)O)NC(=O)[C@H](CC(C)C)NC(=O)C(C)(C)NC(=O)[C@@H](NC(=O)[C@H](CO)NC(=O)[C@H](Cc1ccc(O)cc1)NC(=O)[C@H](CC(=O)O)NC(=O)[C@H](CO)NC(=O)[C@@H](NC(=O)[C@H](Cc1ccccc1)NC(=O)[C@@H](NC(=O)CNC(=O)[C@H](CCC(=O)O)NC(=O)C(C)(C)NC(=O)[C@@H](N)Cc1ccc(O)cc1)[C@@H](C)O)[C@@H](C)O)[C@@H](C)CC)[C@@H](C)CC)C(C)C)C(=O)N[C@@H](C)C(=O)NCC(=O)NCC(=O)N1CCC[C@H]1C(=O)N[C@@H](CO)C(=O)N[C@@H](CO)C(=O)NCC(=O)N[C@@H](C)C(=O)N1CCC[C@H]1C(=O)N1CCC[C@H]1C(=O)N1CCC[C@H]1C(=O)N[C@@H](CO)C(N)=O [Tirzepatide],Emax,GLP-1R [1],99.1 ± 1.05%
same,Emax,GLP-1R [2],102 ± 2.33%
